Measured values as given in ChEMBL document CHEMBL1128738, “Sigma ligands with subnanomolar affinity and preference for the sigma 2 binding site. 1. 3-(omega-aminoalkyl)-1H-indoles” (J Med Chem, 1995).

Key:
Sigma 2 receptor = test: Binding affinity towards sigma receptor binding site 2 using [3H]DTG of whole rat brain homogenates except cerebellum; assay type: tissue-based
[1] = target: Sigma non-opioid intracellular receptor 1 (Rattus norvegicus) (UniProt Q9R0C9); test: Ratio of the binding affinities for sigma-1 and sigma 2 type receptors, ratio of IC50
Chain of Sigma non-opioid intracellular receptor 1 (Rattus norvegicus) (Q9R0C9 whole entry): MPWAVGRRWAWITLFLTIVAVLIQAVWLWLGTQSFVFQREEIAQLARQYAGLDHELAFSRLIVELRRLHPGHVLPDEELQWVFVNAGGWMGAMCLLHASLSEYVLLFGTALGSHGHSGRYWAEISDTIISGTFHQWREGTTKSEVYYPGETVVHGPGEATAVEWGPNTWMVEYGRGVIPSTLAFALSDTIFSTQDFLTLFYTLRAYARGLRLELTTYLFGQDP

[2] = target: Sigma non-opioid intracellular receptor 1 (Rattus norvegicus, UniProt Q9R0C9); test: Binding affinity towards sigma receptor binding site 1 using [3H](+)-pentazocine
Chain of Sigma non-opioid intracellular receptor 1 (Q9R0C9 whole entry): as above

[3] = target: 5-hydroxytryptamine receptor 2A (Rattus norvegicus, UniProt P14842); test: Binding affinity towards 5-hydroxytryptamine 2A receptor binding site using [3H]ketanserin.
Chain of 5-hydroxytryptamine receptor 2A (P14842 whole entry): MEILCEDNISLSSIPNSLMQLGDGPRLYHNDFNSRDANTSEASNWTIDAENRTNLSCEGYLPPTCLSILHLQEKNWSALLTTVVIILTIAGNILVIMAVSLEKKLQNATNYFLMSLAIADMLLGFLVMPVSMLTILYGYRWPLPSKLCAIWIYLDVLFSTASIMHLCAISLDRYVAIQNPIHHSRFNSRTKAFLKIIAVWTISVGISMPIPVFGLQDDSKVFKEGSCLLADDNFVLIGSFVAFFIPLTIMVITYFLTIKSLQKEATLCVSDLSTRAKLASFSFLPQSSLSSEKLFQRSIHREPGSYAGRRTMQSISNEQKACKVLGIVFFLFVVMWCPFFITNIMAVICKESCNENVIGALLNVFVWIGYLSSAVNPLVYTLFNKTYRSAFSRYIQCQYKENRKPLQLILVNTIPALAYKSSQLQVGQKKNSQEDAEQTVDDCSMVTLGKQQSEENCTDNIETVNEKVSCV

[4] = target: T1, Adrenergic receptor alpha-1 (Rattus norvegicus, UniProt P15823+P23944+P43140); test: Binding affinity towards Alpha-1 adrenergic receptor binding site using [3H]prazosin.; assay type: protein assay
T1 sequence (P15823 whole entry): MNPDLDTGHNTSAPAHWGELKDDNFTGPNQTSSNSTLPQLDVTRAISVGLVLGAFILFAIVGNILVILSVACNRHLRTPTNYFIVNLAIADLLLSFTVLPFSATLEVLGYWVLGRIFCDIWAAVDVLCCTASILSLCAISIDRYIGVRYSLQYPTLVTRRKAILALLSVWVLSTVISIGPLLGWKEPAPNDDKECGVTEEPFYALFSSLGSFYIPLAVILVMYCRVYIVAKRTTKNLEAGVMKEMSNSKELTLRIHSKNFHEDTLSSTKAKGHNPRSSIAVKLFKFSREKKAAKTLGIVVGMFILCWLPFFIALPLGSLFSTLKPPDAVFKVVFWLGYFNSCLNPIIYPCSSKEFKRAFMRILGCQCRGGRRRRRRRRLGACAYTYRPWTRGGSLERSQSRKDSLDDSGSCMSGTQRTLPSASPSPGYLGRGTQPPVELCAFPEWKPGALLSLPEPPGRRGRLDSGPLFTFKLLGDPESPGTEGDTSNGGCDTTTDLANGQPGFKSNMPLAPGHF
T1 sequence (P23944 whole entry): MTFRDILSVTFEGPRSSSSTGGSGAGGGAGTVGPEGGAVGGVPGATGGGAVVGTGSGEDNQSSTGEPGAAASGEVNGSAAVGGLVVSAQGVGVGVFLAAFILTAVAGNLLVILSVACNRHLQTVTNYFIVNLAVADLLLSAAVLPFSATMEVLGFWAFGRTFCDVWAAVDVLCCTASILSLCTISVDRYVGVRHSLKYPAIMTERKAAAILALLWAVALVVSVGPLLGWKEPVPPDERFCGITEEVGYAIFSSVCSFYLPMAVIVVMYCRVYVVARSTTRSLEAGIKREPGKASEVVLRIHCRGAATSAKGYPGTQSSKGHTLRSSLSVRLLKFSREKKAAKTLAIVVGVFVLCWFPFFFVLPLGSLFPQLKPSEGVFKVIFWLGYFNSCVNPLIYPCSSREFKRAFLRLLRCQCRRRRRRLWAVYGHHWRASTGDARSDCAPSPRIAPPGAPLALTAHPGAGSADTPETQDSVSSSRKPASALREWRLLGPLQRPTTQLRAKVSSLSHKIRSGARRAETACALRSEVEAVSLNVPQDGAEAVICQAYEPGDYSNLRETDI
T1 sequence (P43140 whole entry): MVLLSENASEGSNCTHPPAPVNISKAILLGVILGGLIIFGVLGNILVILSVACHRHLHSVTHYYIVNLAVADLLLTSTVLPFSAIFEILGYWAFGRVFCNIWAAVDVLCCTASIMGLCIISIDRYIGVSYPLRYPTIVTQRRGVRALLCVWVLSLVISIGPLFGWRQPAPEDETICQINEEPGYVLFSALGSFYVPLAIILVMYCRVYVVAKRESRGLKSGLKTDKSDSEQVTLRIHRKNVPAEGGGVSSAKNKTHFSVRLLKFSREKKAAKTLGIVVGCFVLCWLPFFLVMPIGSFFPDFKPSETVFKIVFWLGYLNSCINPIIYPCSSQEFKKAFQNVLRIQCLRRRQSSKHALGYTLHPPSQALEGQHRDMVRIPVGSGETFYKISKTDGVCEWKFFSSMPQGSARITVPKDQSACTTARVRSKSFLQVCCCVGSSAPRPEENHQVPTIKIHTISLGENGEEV

D(2) dopamine receptor = D(2) dopamine receptor (Rattus norvegicus, UniProt P61169); test: Binding affinity towards Dopamine receptor D2 binding site using [3H]spiroperidol.
Chain of D(2) dopamine receptor (P61169 whole entry): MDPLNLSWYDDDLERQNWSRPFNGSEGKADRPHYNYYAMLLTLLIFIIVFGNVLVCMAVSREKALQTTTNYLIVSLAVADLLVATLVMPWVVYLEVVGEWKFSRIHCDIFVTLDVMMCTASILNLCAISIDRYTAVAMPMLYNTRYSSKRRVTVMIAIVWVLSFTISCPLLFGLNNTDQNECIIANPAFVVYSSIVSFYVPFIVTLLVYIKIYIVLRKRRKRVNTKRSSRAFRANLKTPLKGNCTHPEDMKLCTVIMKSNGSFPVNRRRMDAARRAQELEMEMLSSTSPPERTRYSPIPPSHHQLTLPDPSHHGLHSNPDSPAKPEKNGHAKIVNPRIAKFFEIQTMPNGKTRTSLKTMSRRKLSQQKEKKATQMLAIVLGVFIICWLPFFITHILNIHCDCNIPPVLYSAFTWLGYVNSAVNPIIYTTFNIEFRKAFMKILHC

[5] = target: T2, 5-hydroxytryptamine receptor 1A (Rattus norvegicus, UniProt P19327); test: Binding affinity towards 5-hydroxytryptamine 1A receptor binding site using [3H]8-OH-DPAT.
T2 sequence (P19327 whole entry): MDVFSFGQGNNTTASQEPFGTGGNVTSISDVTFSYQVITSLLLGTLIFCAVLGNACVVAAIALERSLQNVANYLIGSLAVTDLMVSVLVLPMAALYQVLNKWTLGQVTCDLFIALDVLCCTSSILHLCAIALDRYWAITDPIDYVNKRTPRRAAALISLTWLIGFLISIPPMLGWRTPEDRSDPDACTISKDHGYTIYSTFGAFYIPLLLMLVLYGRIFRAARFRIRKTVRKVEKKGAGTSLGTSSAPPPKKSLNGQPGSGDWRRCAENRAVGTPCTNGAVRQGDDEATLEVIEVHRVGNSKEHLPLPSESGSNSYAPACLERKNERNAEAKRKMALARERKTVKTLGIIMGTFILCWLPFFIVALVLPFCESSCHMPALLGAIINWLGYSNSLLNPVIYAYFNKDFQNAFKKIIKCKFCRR

[6] = target: T1, Adrenergic receptor alpha-1; test: Binding affinity for Alpha-1 adrenergic receptor with [3H]prazosin; assay type: protein assay

Structure (SMILES) | IC50 (Sigma 2 receptor) | Ratio [1] | IC50 [2] | IC50 [3] | IC50 [4] | IC50 (D(2) dopamine receptor) | IC50 [5] | IC50 [6]
CS(=O)(=O)n1cc(CCCCN2CCC3(CC2)OCc2ccccc23)c2ccccc21 | 0.05 nM | 26 | 1.3 nM | – | – | – | – | –
Cn1cc(CCCCN2CCC3(CC2)OCc2ccccc23)c2ccccc21 | 0.3 nM | 7 | 2.1 nM | – | – | – | – | –
Fc1ccc(N2CCN(CCCCc3c[nH]c4ccccc34)CC2)cc1 | 1.3 nM | – | 5.6 nM | 14 nM | 12 nM | 180 nM | 37 nM | –
c1csc(-n2cc(CCCCN3CCC4(CC3)OCc3ccccc34)c3ccccc32)c1 | 0.24 nM | 32 | 7.7 nM | – | – | – | – | –
COc1ccccc1N1CCN(CCCCc2c[nH]c3ccccc23)CC1 | 21 nM | – | 14 nM | 150 nM | 2.7 nM | 15 nM | – | –
c1ccc(CN2CCC3(CCCc4ccccc43)CC2)cc1 | 12 nM | – | 0.26 nM | 7100 nM | 1000 nM | – | > 100000 nM | –
Fc1ccc(-n2cc(CN3CCC4(CC3)OCc3ccccc34)c3ccccc32)cc1 | 4.7 nM | 0.64 | 3 nM | – | – | – | – | –
c1ccc2c(c1)COC21CCN(CCCCc2cn(-c3ccsc3)c3ccccc23)CC1 | 0.25 nM | 28 | 7 nM | – | – | – | – | –
COc1ccccc1C1CCN(CCCCc2c[nH]c3ccccc23)CC1 | 3.3 nM | – | 4.5 nM | 83 nM | 11 nM | 20 nM | 56 nM | –
Fc1ccc(-n2cc(CCCN3CCC4(CC3)OCc3ccccc34)c3ccccc32)cc1 | 2.8 nM | 3.6 | 10 nM | – | – | – | – | –
Fc1ccc(C2CCN(CCCCc3c[nH]c4ccccc34)CC2)cc1 | 4 nM | – | 1.4 nM | 34 nM | 20 nM | 160 nM | 27 nM | –
c1ccc2c(c1)COC21CCN(CCCCc2c[nH]c3ccccc23)CC1 | 0.41 nM | – | 2.5 nM | 360 nM | 30 nM | 1300 nM | 130 nM | –
Fc1ccc(-n2cc(CCCCN3CCN(c4ccccc4)CC3)c3ccccc32)cc1 | 0.69 nM | 39 | 27 nM | – | – | – | – | –
c1ccc2c(c1)COC21CCN(CCCCc2cn(-c3ccncc3)c3ccccc23)CC1 | 0.41 nM | 34 | 14 nM | – | – | – | – | –
Fc1ccc(-n2cc(CCCCN3CCC(c4ccccc4)CC3)c3ccccc32)cc1 | 0.44 nM | 100 | 44 nM | – | – | – | – | –
Fc1ccc(C2=CC3CCC(C2)N3CCCCc2cn(-c3ccc(F)cc3)c3ccccc23)cc1 (stereo not given) | 2.5 nM | – | 1200 nM | 3700 nM | 350 nM | 8000 nM | > 10000 nM | –
c1ccc(C2CCN(CCCCc3c[nH]c4ccccc34)CC2)cc1 | 0.48 nM | – | 1.5 nM | 25 nM | 14 nM | 45 nM | 110 nM | –
O=C(CC1CCN(CC2CC2)CC1)c1ccc(F)cc1 | – | – | – | 66 nM | 21 nM | – | 44000 nM | –
Fc1ccc(-n2cc(CCN3CCC4(CC3)OCc3ccccc34)c3ccccc32)cc1 | 3 nM | 5 | 15 nM | – | – | – | – | –
c1ccc(Cn2cc(CCCCN3CCC4(CC3)OCc3ccccc34)c3ccccc32)cc1 | 0.48 nM | 11 | 5.2 nM | – | – | – | – | –
Fc1ccc(C2CCN(CCCCc3cn(-c4ccc(F)cc4)c4ccccc34)CC2)cc1 | 0.27 nM | – | – | 270 nM | 220 nM | 4200 nM | 22000 nM | –
OC(CCCN1CCN(c2ncc(F)cn2)CC1)c1ccc(F)cc1 (stereo not given) [BMY-14802] | – | – | – | 830 nM | 1500 nM | 8400 nM | – | –
c1ccc2c(c1)COC21CCN(CCCCc2cn(-c3nccs3)c3ccccc23)CC1 | 0.19 nM | 74 | 14 nM | – | – | – | – | –
CC(=O)n1cc(CCCCN2CCC3(CC2)OCc2ccccc23)c2ccccc21 | 0.21 nM | 27 | 5.7 nM | – | – | – | – | –
Fc1ccc(C2=CCN(CCCCc3c[nH]c4ccccc34)CC2)cc1 | 2.3 nM | – | 7.5 nM | 27 nM | 24 nM | 51 nM | 71 nM | –
Fc1ccc(-n2cc(CCCCN3CCC4(CC3)OCc3ccccc34)c3ccccc32)cc1 [SIRAMESINE] | – | – | – | 2000 nM | – | 800 nM | 21000 nM | 330 nM
Cc1ccc(S(=O)(=O)n2cc(CCCCN3CCC4(CC3)OCc3ccccc34)c3ccccc32)cc1 | 0.17 nM | 59 | 10 nM | – | – | – | – | –
Fc1ccc(N2CCN(CCCCc3cn(-c4ccc(F)cc4)c4ccccc34)CC2)cc1 | 7.5 nM | – | 440 nM | 250 nM | 420 nM | 3000 nM | > 10000 nM | –
